Laboratory results: US6737383B1, “Herbicidal oxadiazolidines” (priority 1999, dated 2004)

Columns and labels:
bedstraw = assay: Test B pre/postemergence bedstraw; assay type: in vivo, Galium aparine; settings: Preemergence; for Bedstraw plant response rating: scale of 0 to 10 where 0 is no effect and 10 is complete control
Procedure, shortened: (§1)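 Response is a visual 0-to-10 score relative to untreated plants, where 0 means no effect and 10 means complete control, taken twelve to sixteen days after application. Treatments went onto soil at planting and onto foliage of 1- to 4-leaf plants, using a surfactant-containing non-phytotoxic solvent.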

giant foxtail = assay: Test B pre/postemergence giant foxtail; assay type: in vivo, Setaria faberii; settings: for Giant foxtail plant response rating: scale of 0 to 10 where 0 is no effect and 10 is complete control
Procedure, shortened: as §1

wheat = assay: Test B pre/postemergence wheat; assay type: in vivo, Triticum aestivum; settings: for Wheat plant response rating: scale of 0 to 10 where 0 is no effect and 10 is complete control
Procedure, shortened: as §1

crabgrass = assay: Test B pre/postemergence crabgrass; assay type: in vivo, Digitaria sanguinalis; settings: for Crabgrass plant response rating: scale of 0 to 10 where 0 is no effect and 10 is complete control
Procedure, shortened: as §1

rice = assay: Test B flood test rice; assay type: in vivo, Oryza sativa
Procedure, shortened: (§2)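 Each value is a visual injury score relative to controls, with 10 meaning complete control and 0 no effect. Evaluation took place twelve to sixteen days after the 2-leaf-stage plants were treated and kept in the greenhouse.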

duck salad = assay: Test B flood test duck salad; assay type: in vivo, Heteranthera limosa
Procedure, shortened: as §2

pigweed = assay: Test B pre/postemergence pigweed; assay type: in vivo, Amaranthus retroflexus; settings: for Redroot pigweed plant response rating: scale of 0 to 10 where 0 is no effect and 10 is complete control
Procedure, shortened: as §1

cocklebur = assay: Test B pre/postemergence cocklebur; assay type: in vivo, Xanthium strumarium; settings: for Cocklebur plant response rating: scale of 0 to 10 where 0 is no effect and 10 is complete control
Procedure, shortened: as §1

sugar beet = assay: Test B pre/postemergence sugar beet; assay type: in vivo, Beta vulgaris; settings: Postemergence, scale 0 to 10, 0 is no effect, 10 is complete control
Procedure, shortened: as §1

[1] = Postemergence, Rate 125 g/ha, scale 0 to 10, 0 is no effect, 10 is complete control
[2] = Postemergence, Rate 250 g/ha, scale 0 to 10, 0 is no effect, 10 is complete control
[3] = Preemergence, Rate 62 g/ha, scale 0 to 10 (0 no effect, 10 complete control)
[4] = Rate 500 g/ha, Postemergence, scale 0 to 10, 0 no effect, 10 complete control
[5] = Postemergence (flood test), Rate 125 g/ha, scale 0 to 10, 0 is no effect, 10 is complete control
[6] = Rate 62 g/ha, Postemergence (flood test species), scale of 0 to 10 where 0 is no effect and 10 is complete control
[7] = Rate 62 g/ha, flood test species, Pre-emergence, visual evaluation after twelve to sixteen days
[8] = Rate 125 g/ha, under heading Pre-emergence, flood test species, visual evaluation after twelve to sixteen days
[9] = Rate 250 g/ha, Pre-emergence, flood-test species, scale 0 to 10, 0 is no effect, 10 is complete control
[10] = Rate 500 g/ha, listed under Postemergence (flood test species), scale 0 to 10, 0 no effect, 10 complete control
[11] = Rate 500 g/ha, Pre-emergence, flood test species, scale 0 to 10 (0 no effect, 10 complete control)
[12] = flood test species, listed under Postemergence, Rate 250 g/ha, scale 0 to 10, 0 is no effect, 10 is complete control

CC1CC1n1c(=O)on(C(=O)N(c2ccc(F)cc2F)C(C)C)c1=O (centres unmarked) [Compound 372]
Plant response rating, Bedstraw (bedstraw; Rate 62 g/ha, scale 0 to 10 (0 no effect, 10 complete control)): 0
Bedstraw plant response rating (0 to 10 scale) (bedstraw; Rate 125 g/ha): 2
Bedstraw plant response rating (bedstraw; Rate 250 g/ha): 10
Bedstraw plant response rating (bedstraw; Rate 500 g/ha): 10
Plant response rating, Giant foxtail (giant foxtail; [1]): 9
Plant response rating, Giant foxtail (giant foxtail; [2]): 9
Plant response rating, Giant foxtail (giant foxtail; [3]): 10
Giant foxtail plant response rating (0 to 10 scale) (giant foxtail; Preemergence, Rate 125 g/ha): 10
Giant foxtail plant response rating (giant foxtail; Preemergence, Rate 250 g/ha): 10
Giant foxtail plant response rating (giant foxtail; Preemergence, Rate 500 g/ha): 10
Giant foxtail plant response rating (giant foxtail; Rate 62 g/ha, Postemergence): 4
Plant response rating, Giant foxtail (giant foxtail; [4]): 9
Plant response rating, Wheat (wheat; [1]): 0
Plant response rating, Wheat (wheat; [2]): 0
Plant response rating, Wheat (wheat; [3]): 0
Wheat plant response rating (0 to 10 scale) (wheat; Preemergence, Rate 125 g/ha): 0
Wheat plant response rating (wheat; Preemergence, Rate 250 g/ha): 0
Wheat plant response rating (wheat; Preemergence, Rate 500 g/ha): 6
Wheat plant response rating (wheat; Rate 62 g/ha, Postemergence): 0
Plant response rating, Wheat (wheat; [4]): 2
Plant response rating, Crabgrass (crabgrass; [1]): 2
Plant response rating, Crabgrass (crabgrass; [2]): 8
Plant response rating, Crabgrass (crabgrass; [3]): 8
Crabgrass plant response rating (0 to 10 scale) (crabgrass; Preemergence, Rate 125 g/ha): 9
Crabgrass plant response rating (crabgrass; Preemergence, Rate 250 g/ha): 10
Crabgrass plant response rating (crabgrass; Preemergence, Rate 500 g/ha): 10
Crabgrass plant response rating (crabgrass; Rate 62 g/ha, Postemergence): 2
Plant response rating, Crabgrass (crabgrass; [4]): 9
Plant response rating, Rice (rice; [5]): 0
Rice plant response rating (rice; [6]): 0
Plant response rating, Rice (0 to 10 scale, 0 is no effect, 10 is complete control) (rice; [7]): 0
Rice plant response rating (0 to 10 scale, 0 is no effect, 10 is complete control) (rice; [8]): 0
Rice plant response rating (rice; [9]): 0
Plant response rating, Rice (rice; [10]): 2
Rice plant response rating (rice; [11]): 0
Plant response rating, Rice (rice; [12]): 2
Plant response rating, Ducksalad (duck salad; [5]): 6
Ducksalad plant response rating (duck salad; [6]): 3
Plant response rating, Ducksalad (0 to 10 scale, 0 is no effect, 10 is complete control) (duck salad; [7]): 0
Ducksalad plant response rating (0 to 10 scale, 0 is no effect, 10 is complete control) (duck salad; [8]): 0
Ducksalad plant response rating (duck salad; [9]): 0
Plant response rating, Ducksalad (duck salad; [10]): 6
Ducksalad plant response rating (duck salad; [11]): 0
Plant response rating, Ducksalad (duck salad; [12]): 6
Plant response rating, Redroot pigweed (pigweed; [1]): 3
Plant response rating, Redroot pigweed (pigweed; [2]): 6
Plant response rating, Redroot pigweed (pigweed; [3]): 6
Redroot pigweed plant response rating (0 to 10 scale) (pigweed; Preemergence, Rate 125 g/ha): 10
Redroot pigweed plant response rating (pigweed; Preemergence, Rate 250 g/ha): 10
Redroot pigweed plant response rating (pigweed; Preemergence, Rate 500 g/ha): 10
Redroot pigweed plant response rating (pigweed; Rate 62 g/ha, Postemergence): 2
Plant response rating, Redroot pigweed (pigweed; [4]): 9
Plant response rating, Cocklebur (cocklebur; [1]): 0
Plant response rating, Cocklebur (cocklebur; [2]): 0
Plant response rating, Cocklebur (cocklebur; [3]): 0
Cocklebur plant response rating (0 to 10 scale) (cocklebur; Preemergence, Rate 125 g/ha): 0
Cocklebur plant response rating (cocklebur; Preemergence, Rate 250 g/ha): 2
Cocklebur plant response rating (cocklebur; Preemergence, Rate 500 g/ha): 2
Cocklebur plant response rating (cocklebur; Rate 62 g/ha, Postemergence): 0
Plant response rating, Cocklebur (cocklebur; [4]): 3
Plant response rating, Sugarbeets (sugar beet; Rate 125 g/ha): 2
Plant response rating, Sugarbeets (sugar beet; Rate 250 g/ha): 2
